Results reported in PubChem BioAssay AID330 (DTP/NCI, 2004).
Several values for one entry are separate records, joined by “and”; a condition that tells them apart may be missing. Identical values can stand only once. Toxic doses and inconclusive results are not listed. How the source made its calls: active means survival T/C of 150% or more; inactive means T/C below 125% in these data. Peptide text beside a SMILES is read from it.

System: P388 leukemia ip, CD2F1 mice, survival T/C
Test: NCI In Vivo Anticancer Drug Screen. Data for tumor model P388 Leukemia (intraperitoneal) in CD2F1 (CDF1) mice
Conditions: endpoint: median survival time, higher = longer survival
Outline: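 Mice carrying the transplanted tumor received test compound or vehicle. Survival was recorded in each group, and the value is the treated-group measurement divided by that of the vehicle-treated control group.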

[1] = dose: 50.0 mg/kg/injection, schedule: Q01DX009 (ip), vehicle: Klucel (hydroxypropylcellulose) (HPC)
[2] = dose: 60.0 mg/kg/injection, schedule: Q01DX005 (ip), vehicle: saline with Tween-80
[3] = dose: 100.0 mg/kg/injection, schedule: Q01DX009 (ip), vehicle: Klucel (hydroxypropylcellulose) (HPC)
[4] = dose: 120.0 mg/kg/injection, schedule: Q01DX005 (ip), vehicle: saline with Tween-80
[5] = dose: 200.0 mg/kg/injection, schedule: Q01DX009 (ip), vehicle: Klucel (hydroxypropylcellulose) (HPC)
[6] = dose: 240.0 mg/kg/injection, schedule: Q01DX005 (ip), vehicle: saline with Tween-80
[7] = dose: 50.0 mg/kg/injection, schedule: Q01DX005 (ip), vehicle: saline
[8] = dose: 100.0 mg/kg/injection, schedule: Q01DX005 (ip), vehicle: saline
[9] = dose: 200.0 mg/kg/injection, schedule: Q01DX005 (ip), vehicle: saline
[10] = dose: 12.5 mg/kg/injection, schedule: Q01DX009 (ip), vehicle: Klucel (hydroxypropylcellulose) (HPC)
[11] = dose: 25.0 mg/kg/injection, schedule: Q01DX009 (ip), vehicle: Klucel (hydroxypropylcellulose) (HPC)
[12] = dose: 50.0 mg/kg/injection, schedule: Q01DX005 (ip), vehicle: Klucel (hydroxypropylcellulose) (HPC)
[13] = dose: 100.0 mg/kg/injection, schedule: Q01DX005 (ip), vehicle: Klucel (hydroxypropylcellulose) (HPC)
[14] = dose: 200.0 mg/kg/injection, schedule: Q01DX005 (ip), vehicle: Klucel (hydroxypropylcellulose) (HPC)
[15] = dose: 25.0 mg/kg/injection, schedule: Q01DX009 (ip), vehicle: saline with Tween-80
[16] = dose: 200.0 mg/kg/injection, schedule: Q01DX009 (ip), vehicle: saline with Tween-80
[17] = dose: 50.0 mg/kg/injection, schedule: Q01DX009 (ip), vehicle: saline with Tween-80
[18] = dose: 100.0 mg/kg/injection, schedule: Q04DX003 (ip), vehicle: saline with Tween-80
[19] = dose: 200.0 mg/kg/injection, schedule: Q04DX003 (ip), vehicle: saline with Tween-80

Measured: T/C

O=C(Nc1ccc(Cl)c(Cl)c1)C1C(=O)C(=O)N(c2ccc(Cl)c(Cl)c2)C1=O (stereo not drawn)
inactive: [1] 97 % of control | [2] 101 % of control | [3] 109 % of control | [4] 100 % of control | [5] 103 % of control | [6] 103 % of control

Cc1c(C)[n+](=O)c2ccccc2n1[O-]
inactive: [7] 103 % of control | [8] 108 % of control | [9] 100 % of control

CC#CC#C/C=C1/C=CC2(CC=CO2)O1 (stereo not drawn)
inactive: [10] 107 % of control | [11] 106 % of control | [1] 111 % of control | [3] 114 % of control

COC(=O)c1nc(N)nc(C(=O)OC)c1C(=O)c1ccc2ccccc2c1
inactive: dose: 60.0 mg/kg/injection, schedule: Q01DX005 (ip), vehicle: Klucel (hydroxypropylcellulose) (HPC) 102 % of control | dose: 120.0 mg/kg/injection, schedule: Q01DX005 (ip), vehicle: Klucel (hydroxypropylcellulose) (HPC) 101 % of control

Cc1cnc(C)n2ncnc12
inactive: dose: 100.0 mg/kg/injection, schedule: Q04DX003 (ip), vehicle: saline 93 % of control | dose: 200.0 mg/kg/injection, schedule: Q04DX003 (ip), vehicle: saline 95 % of control | dose: 400.0 mg/kg/injection, schedule: Q04DX003 (ip), vehicle: saline 88 % of control

CC1Cc2ccccc2/C1=N/NC(N)=O (stereo not drawn)
inactive: [12] 103 % of control | [13] 100 % of control | [14] 99 % of control

CCOC(=O)c1ccc(NC(=O)Nc2ncccc2C)cc1
inactive: dose: 0.78 mg/kg/injection, schedule: Q01DX009 (ip), vehicle: saline with Tween-80 98 % of control | dose: 1.56 mg/kg/injection, schedule: Q01DX009 (ip), vehicle: saline with Tween-80 103 % of control | dose: 6.25 mg/kg/injection, schedule: Q01DX009 (ip), vehicle: saline with Tween-80 92 % of control | [15] 90 % of control | [16] 89 % of control

[O-][n+]1cccc2c3ccccc3ncc21
inactive: dose: 6.25 mg/kg/injection, schedule: Q04DX002 (ip), vehicle: saline with Tween-80 94 % of control | dose: 12.5 mg/kg/injection, schedule: Q04DX002 (ip), vehicle: saline with Tween-80 108 % of control | dose: 25.0 mg/kg/injection, schedule: Q04DX002 (ip), vehicle: saline with Tween-80 100 % of control

O=C(N/N=C/c1cccc(C(F)(F)F)c1)c1ccncc1
inactive: [2] 103 % of control | [4] 97 % of control | [6] 90 % of control

COc1ccc(C(C)=C2C=C(C(C)(C)C)C(=O)C(C(C)(C)C)=C2)cc1
inactive: dose: 50.0 mg/kg/injection, schedule: Q01DX005 (ip), vehicle: saline + Tween-80 + alcohol 111 % of control | dose: 100.0 mg/kg/injection, schedule: Q01DX005 (ip), vehicle: saline + Tween-80 + alcohol 109 % of control | dose: 200.0 mg/kg/injection, schedule: Q01DX005 (ip), vehicle: saline + Tween-80 + alcohol 113 % of control

[Cu+2].[NH-]C(=O)NC([NH-])=O.[NH-]C(=O)NC([NH-])=O
inactive: dose: 6.25 mg/kg/injection, schedule: Q01DX005 (ip), vehicle: saline with Tween-80 99 % of control | dose: 12.5 mg/kg/injection, schedule: Q01DX005 (ip), vehicle: saline with Tween-80 99 % of control

CCCCCCCCCCCCC1C(=O)NCCNCCCNCCNC1=O
inactive: dose: 12.5 mg/kg/injection, schedule: Q01DX005 (ip), vehicle: saline 101 % of control | dose: 25.0 mg/kg/injection, schedule: Q01DX005 (ip), vehicle: saline 97 % of control | [7] 105 % of control

CC(C)(CO)NC(=O)c1ccccc1Br
inactive: [17] 100 % of control | dose: 100.0 mg/kg/injection, schedule: Q01DX009 (ip), vehicle: saline with Tween-80 100 % of control | [16] 99 % of control

CCCCCCC1N=C(N)N=C(N)N1c1ccc(Cl)cc1 (stereo not drawn)
inactive: dose: 6.25 mg/kg/injection, schedule: Q01DX005 (ip), vehicle: Klucel (hydroxypropylcellulose) (HPC) 100 % of control | dose: 12.5 mg/kg/injection, schedule: Q01DX005 (ip), vehicle: Klucel (hydroxypropylcellulose) (HPC) 110 % of control | dose: 25.0 mg/kg/injection, schedule: Q01DX005 (ip), vehicle: Klucel (hydroxypropylcellulose) (HPC) 106 % of control

C/C(=N\N=C(\[Se])N1CC(C)OC(C)C1)c1ccccn1 (stereo not drawn)
inactive: dose: 10.0 mg/kg/injection, schedule: Q04DX003 (ip), vehicle: saline with Tween-80 100 % of control | dose: 25.0 mg/kg/injection, schedule: Q04DX003 (ip), vehicle: saline with Tween-80 106 % of control | dose: 50.0 mg/kg/injection, schedule: Q04DX003 (ip), vehicle: saline with Tween-80 107 % of control | [18] 109 % of control | [19] 121 % of control

CC1(C)C(=O)C(O)=Cc2ccccc21
inactive: [12] 109 % of control | [13] 107 % of control | [14] 101 % of control

COc1ccc(CN2CC(C)(NC(=O)OCc3ccccc3)C2=O)c(OC)c1 (stereo not drawn)
inactive: dose: 50.0 mg/kg/injection, schedule: Q01DX005 (ip), vehicle: saline with Tween-80 106 % of control | dose: 100.0 mg/kg/injection, schedule: Q01DX005 (ip), vehicle: saline with Tween-80 98 % of control | dose: 200.0 mg/kg/injection, schedule: Q01DX005 (ip), vehicle: saline with Tween-80 103 % of control

O=C(CI)Nc1cccc(C(=O)O)c1O
inactive: [10] 101 % of control | [11] 113 % of control | [1] 99 % of control

C=C1CCN(c2ccccc2Cl)C1=O
inactive: dose: 4.0 mg/kg/injection, schedule: Q01DX009 (ip), vehicle: saline + alcohol 100 % of control and 103 % of control and 109 % of control | dose: 8.0 mg/kg/injection, schedule: Q01DX009 (ip), vehicle: saline + alcohol 100 % of control and 104 % of control and 106 % of control | dose: 16.0 mg/kg/injection, schedule: Q01DX009 (ip), vehicle: saline + alcohol 100 % of control and 112 % of control | dose: 32.0 mg/kg/injection, schedule: Q01DX009 (ip), vehicle: saline + alcohol 99 % of control and 100 % of control and 107 % of control | dose: 64.0 mg/kg/injection, schedule: Q01DX009 (ip), vehicle: saline + alcohol 104 % of control and 105 % of control

NC(CCC(=O)O)C(=O)NC(Cc1c[nH]c2ccccc12)C(=O)NC(CCC(=O)O)C(=O)O (stereo not drawn) (H-Glu-Trp-Glu-OH; configuration not given here)
inactive: [7] 93 % of control | [8] 104 % of control | [9] 105 % of control

COc1cc(/C=C2/Cc3ccccc3C2=O)ccc1O
inactive: dose: 60.0 mg/kg/injection, schedule: Q01DX005 (ip), vehicle: saline 106 % of control | dose: 120.0 mg/kg/injection, schedule: Q01DX005 (ip), vehicle: saline 106 % of control | dose: 240.0 mg/kg/injection, schedule: Q01DX005 (ip), vehicle: saline 96 % of control

CCOC(=O)C1=C(C)NC(=O)NC1c1ccc(C)cc1 (stereo not drawn)
inactive: [18] 100 % of control | [19] 95 % of control | dose: 400.0 mg/kg/injection, schedule: Q04DX003 (ip), vehicle: saline with Tween-80 100 % of control

O=NNc1cncc(Cl)n1
inactive: dose: 3.12 mg/kg/injection, schedule: Q01DX009 (ip), vehicle: water 100 % of control | dose: 6.25 mg/kg/injection, schedule: Q01DX009 (ip), vehicle: water 97 % of control | dose: 12.5 mg/kg/injection, schedule: Q01DX009 (ip), vehicle: water 105 % of control | dose: 25.0 mg/kg/injection, schedule: Q01DX009 (ip), vehicle: water 99 % of control | dose: 50.0 mg/kg/injection, schedule: Q01DX009 (ip), vehicle: water 92 % of control and 97 % of control

CSCC(C)C(N)C(=O)O (stereo not drawn)
inactive: [1] 109 % of control | [3] 105 % of control | [5] 100 % of control

OC(c1cc(-c2ccccc2)nc2c(Cl)cc(Cl)cc12)C1CCCCN1 (stereo not drawn)
inactive: dose: 12.5 mg/kg/injection, schedule: Q01DX009 (ip), vehicle: saline with Tween-80 107 % of control | [15] 98 % of control | [17] 88 % of control and 95 % of control

CN(C)c1ccc(/C=C/c2ccc3c(c2)OCO3)cc1
inactive: [1] 98 % of control | [3] 95 % of control | [5] 98 % of control
